Measured values from patent publication US11274132B2, “Combined preparations of PKM2 modulators and HMGB1” (Ruprecht-Karls-Universität Heidelberg, priority 2015, dated 2022).
Entries after “also recorded” stand apart in the source; their conditions may differ. Like-named read-outs stand apart in the source and are kept apart here. Residues, ends and D or L forms follow the SMILES beside them.

Assays:
[1] = test system: HCT116 colorectal cancer cells; test: Crystal violet cytotoxicity assay; type: cell-based
Method: (§1) Human colon carcinoma cell lines SW480, HCT116, HT29 and Caco2, the human glioblastoma cell line U251MG and the Natural killer cell line NK-92 Cl were purchased from ATCC. Cell lines were regularly tested for contamination by multiplex PCR performed in the Genomics and Proteomics Core Facility 2 (DKFZ, Heidelberg, Germany). For experiments, cells were cultured for no more than 10 passages. Rho zero cells were generated as described earlier 1. (Gdynia, G. et al. Danger signaling protein HMGB1 induces a distinct form of cell death accompanied by formation of giant mitochondria. Cancer research 70, 8558-8568). Cells used in the experiments were cultured in RPMI (#1640, colon carcinomas, NK cells) or DMEM high glucose (#41965-039, glioblastoma cells) medium. Rho zero cells were generated as described earlier (Gdynia, G. et al. ibd.). Briefly, cells were cultured in RPMI medium (10% FCS, 1% P/S) supplemented with 250 ng/ml ethidiumbromide, 50 μg/ml L-pyruvate and 5 mg/ml uridine over a period of 12 weeks. For cytotoxicity measurements, cells were cultured in 96-well plates, treated with recombinant human HMGB1 protein (Sigma-Aldrich®), glycyrrhizinic acid ((3β, 18α)-30-hydroxy-11, 30-dioxoolean-12-en-3-yl 2-O-β-D-glucopyranuronosyl-β-D-glucopyranosiduronic acid)) (Sigma-Aldrich®), 10 μM (non-toxic) or 100 μM (cytotoxic) P-M2tide (aa sequence: GGAVDDDpYAQFANGG; #BML-P239-0001; Enzo Life Sciences) or 100 μM ML-265 (Cayman Chemical), then cell viability was assessed by crystal violet staining (Gillies, R. J., Didier, N. & Denton, M. Determination of cell number in monolayer cultures. Analytical biochemistry 159, 109-113 (1986)). Malic enzyme 1 knock-down was performed with 40 nM siRNA using lipofectamine in 6-well plates followed by treatment with 80 nM HMGB1 for 72 h. Sequences of siRNA were: ME1, 5′-[…]-3′ and scrambled control 5′-CCUGCAGUACUUCAAGCGGtt-3′. PKM2 siRNA was from Santa Cruz. A nonspecific siRNA served as control (Dharmacon, Schwerte, Germany). For overexpression of PKM2 or ME1, cells were transfected with pCMV-PKM2 (Sino Biological Inc., Beijing, China) or pCMV-ME1 (OriGene, Rockville, Md., USA) using Lipofectamine 2000. For cytotoxicity measurements confluent cells were cultured in 96-well plates if not otherwise indicated. Cytotoxic activity of supernatants from stimulated NK cells was assessed in 96-well plates for 3 days with RPMI medium as reference. Recombinant human HMGB1 (10 ng, Sigma) suited as positive control. For mass isotopomer assays, cells were cultured in glucose- or glutamine-free medium supplemented with either uniformly labeled (U)-13C-D-glucose or U-13C-glutamine (Sigma-Aldrich®).

HT29 cells = test: Crystal violet cytotoxicity assay; type: cell-based; conditions: 72 h
Method: as §1

[2] = test system: SW480 colorectal cancer cells; test: Crystal violet cytotoxicity assay; type: cell-based
Method: as §1

tetrameric PK M2 = target: T1, tetrameric PK M2 (Homo sapiens, UniProt P14618); test: Pyruvate kinase enzymatic assay in cytosolic fractions / homogenates (low PEP); type: cell-based; conditions: glycyrrhizin 200 μM
T1 construct: Activities of glycolytic enzymes measured in cytosolic fractions after treatment with HMGB1; endogenous in cells; host or cells: SW480, HCT116, HT29 cytosolic fractions; homogenates of human colon cancer tissue slices
Method: Enzymatic activities of respiratory chain complexes, glycolytic proteins and malic enzyme were determined in subcellular fractions as previously described (Kaminski, M. M. et al. T cell activation is driven by an ADP-dependent glucokinase linking enhanced glycolysis with mitochondrial reactive oxygen species generation. Cell reports 2, 1300-1315 (2012).Bruncko, M. et al. Naphthamidine urokinase plasminogen activator inhibitors with improved pharmacokinetic properties. Bioorganic & medicinal chemistry letters 15, 93-98, (2005)) using a computer-tuneable spectrophotometer (Spectramax Plus Microplate Reader, Molecular Devices; Sunny Vale, Calif., USA) operating in the dual wavelength mode; samples were analyzed in temperature-controlled 96-well plates in a final volume of 300 μl. Activity of ME1 was recorded in presence of increasing amounts of malic acid (0.02, 0.05, 0.1, 0.2, 0.5, 1, 2.5 mM). Vmax and Km were calculated using a Hanes-Woolf plot. In the presence of high substrate levels the Km for malic acid was similar in all three tested cell lines (SW480: 0.32 mM, HCT116: 0.30 mM, HT29: 0.31 mM). Vmax (mU/mg protein) values were 3.38 (SW480, 0.5-5.0 mM malic acid), 5.77 (HCT116, 0.5-5.0 mM malic acid) and 3.68 (HT29, 0.5-5.0 mM malic acid) and 1.68 (SW480, 0.02-0.2 mM malic acid), 3.24 (HCT116, 0.02-0.2 mM malic acid) and 1.89 (HT29, 0.02-0.2 mM malic acid). Two isoforms of ME1, mitochondrial (NAD(P)+dependent) ME3 and mitochondrial (NAD+dependent) ME2, had very low or no detectable activities (data not shown).

[3] = test system: glucose flux (glycolysis); test: Glycolysis: conversion of 5-3H-Glucose to 3H2O; type: cell-based, human; conditions: SW480 cells; co-treatment, glycyrrhizin 200 μM
Method: Lactate derived from the metabolism of ^13C6-D-glucose or ^13C5-glutamine was determined by comparing the CH3 group intensities of labeled and non-labeled lactate in NMR. Mitochondrial respiration was measured using an Oroboros 1 oxygraph system. Glycolysis was measured by monitoring the conversion of 5-^3H-Glucose to ^3H2O. Incorporation of ^14C into RNA ribose from U-^14C-labelled glucose was taken as glucose utilization in the pentose phosphate shunt. Enzymatic activities were determined in subcellular fractions as previously described^24.

[4] = CellTiter-Glo Luminescent Cell Viability Assay; type: cell-based, human; conditions: human, CLL cells from a patient, DASA 100 μM, read-out: Viable cells [DASA]
colorectal cancer cells = test: Crystal violet cytotoxicity assay, cell lines not given; type: cell-based
Method: as §1

PKM2 = PKM2 (Homo sapiens, UniProt P14618); test: Immunoprecipitation with 125I-labeled HMGB1 (PKM2 pull-down); type: binding; set-up: endogenous in cells; conditions: P-M2tide at non-cytotoxic concentrations
Method: FIG. 6: Co-administration of HMGB1 and an activator (A left and right) or an inhibitor (B) of PMK2 has a synergistic cytotoxic effect, as determined in the crystal violet cytotoxicity assay (assays were performed in duplicate, * indicates p<0.05). (C) Immunoprecipitation with I125-labeled HMGB1 (PKM2 pull-down). HMGB1, like phosphotyrosine-peptides, binds close to the allosteric center of PKM2, leading to a competition in binding.

CLL cells = test: CellTiter-Glo Luminescent Cell Viability Assay; type: cell-based, human
[5] = 72 h, NK cell derived HMGB1 approx. 16 nM, recombinant human HMGB1 80 nM
[6] = glycyrrhizin as inhibitor of HMGB1
[7] = supernatants of anti-Nkp30 stimulated blood NK cells, glycyrrhizin 200 μM, 72 h

Chain of PKM2 (P14618 whole entry): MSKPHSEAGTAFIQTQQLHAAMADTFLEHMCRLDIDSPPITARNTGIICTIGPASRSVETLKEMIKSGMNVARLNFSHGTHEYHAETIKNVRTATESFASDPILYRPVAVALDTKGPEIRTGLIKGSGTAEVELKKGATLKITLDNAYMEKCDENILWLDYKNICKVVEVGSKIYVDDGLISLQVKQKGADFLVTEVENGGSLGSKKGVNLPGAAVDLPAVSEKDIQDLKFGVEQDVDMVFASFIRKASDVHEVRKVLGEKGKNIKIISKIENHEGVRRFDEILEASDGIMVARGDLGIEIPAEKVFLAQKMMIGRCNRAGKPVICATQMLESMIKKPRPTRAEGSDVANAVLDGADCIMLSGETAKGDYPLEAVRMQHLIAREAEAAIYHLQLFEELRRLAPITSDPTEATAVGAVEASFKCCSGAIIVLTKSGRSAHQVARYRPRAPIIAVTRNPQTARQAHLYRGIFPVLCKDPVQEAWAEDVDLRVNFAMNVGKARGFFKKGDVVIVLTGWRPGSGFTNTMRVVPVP
T1 sequence (P14618 2-531): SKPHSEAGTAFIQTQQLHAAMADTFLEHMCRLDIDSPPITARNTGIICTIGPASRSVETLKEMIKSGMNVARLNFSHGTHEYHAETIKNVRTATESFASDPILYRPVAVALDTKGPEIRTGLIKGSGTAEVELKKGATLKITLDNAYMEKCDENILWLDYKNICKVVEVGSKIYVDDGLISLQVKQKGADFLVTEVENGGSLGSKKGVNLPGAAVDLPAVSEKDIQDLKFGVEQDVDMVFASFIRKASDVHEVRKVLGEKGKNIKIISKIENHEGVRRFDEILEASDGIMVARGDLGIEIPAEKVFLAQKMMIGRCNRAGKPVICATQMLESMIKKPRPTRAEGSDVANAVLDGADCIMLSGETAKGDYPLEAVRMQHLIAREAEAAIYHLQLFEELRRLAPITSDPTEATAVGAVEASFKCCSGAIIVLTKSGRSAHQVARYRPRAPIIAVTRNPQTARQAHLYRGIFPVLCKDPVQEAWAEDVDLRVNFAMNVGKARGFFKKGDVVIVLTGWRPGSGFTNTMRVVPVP

Compound: NK cell derived HMGB1: HMGB1 isolated from the cytosolic granules of the NK cell line NK-92 CI by HPLC (eluate #38)
- cell death (cytotoxicity) [1, 5]: efficiently killed
- side-by-side cytotoxicity versus recombinant HMGB1 (HT29 cells; 80 nM or 160 nM): higher cytotoxicity than recombinant HMGB1
- cell death (cytotoxicity) [2, 5]: efficiently killed

Compound: CC1(C)[C@@H](O[C@H]2O[C@H](C(=O)O)[C@@H](O)[C@H](O)[C@H]2O[C@@H]2O[C@H](C(=O)O)[C@@H](O)[C@H](O)[C@H]2O)CC[C@]2(C)[C@H]3C(=O)C=C4[C@@H]5C[C@@](C)(C(=O)O)CC[C@]5(C)CC[C@@]4(C)[C@]3(C)CC[C@@H]12 [glycyrrhizin, (3β, 18α)-30-hydroxy-11, 30-dioxoolean-12-en-3-yl 2-O-β-D-glucopyranuronosyl-β-D-glucopyranosiduronic acid, reference compound]
- blocking of HMGB1 cytotoxic effects [1, 6]: significantly blocked
- effect on NK cell-dependent cytotoxic effect [1, 7]: diminished
- effect on NK cell-dependent cytotoxic effect (HT29 cells; supernatants of anti-Nkp30 stimulated blood NK cells, glycyrrhizin 200 μM): diminished
- blocking of HMGB1 cytotoxic effects [2, 6]: significantly blocked
- effect on NK cell-dependent cytotoxic effect [2, 7]: not changed
- restoration of tetrameric PK M2 activity inhibited by NK cell supernatant (tetrameric PK M2): completely restored
- reversal of HMGB1-induced metabolic shift [3]: partly reversed

Compound: CC[C@H]1/C=C/C=C/C[C@@H](C)[C@H](O)[C@@](C)(O)C(=O)[C@@H](C)[C@H](O)[C@@H](C)C(=O)[C@@H](C)[C@H](O)[C@@H](C)/C=C/C(=O)O[C@@H]2[C@H](C)[C@H](CC1)O[C@]1(CC[C@H](C)[C@H](C[C@@H](C)O)O1)[C@H]2C [oligomycin, reference compound]
- cell death ([1]; oligomycin 10 ng/ml, 72 h): rapid cell death
- cell death ([2]; oligomycin 10 ng/ml, 72 h): rapid cell death

Compound: O=S(=O)(c1ccc2c(c1)OCCO2)N1CCN(S(=O)(=O)c2c(F)cccc2F)CC1 [DASA, 1-(2,6-Difluorophenylsulfonyl)-4-(2,3-dihydrobenzo[b][1,4]dioxin-6-ylsulfonyl)piperazine]
- viability at 100 μM ([4]; patient P0010, sample 13PB0501): 100%
- viability at 100 μM ([4]; patient P0010, sample 14PB0132): 67%
- viability at 100 μM ([4]; patient P0074, sample 14BP0079): 37%
- viability at 100 μM ([4]; patient P0369, sample 13PB0555): 100%
- viability at 100 μM ([4]; patient P0460, sample 14PB0471): 72%
- viability at 100 μM ([4]; patient P0641, sample 13PB0500): 100%
- viability at 100 μM ([4]; patient P0641, sample 13PB0649): 88%
- viability at 100 μM ([4]; patient P0645, sample 13PB0473): 90%
- viability at 100 μM ([4]; patient P0701, sample 14PB0451): 100%

Compound: Cn1c2cc([S+](C)[O-])sc2c2cnn(Cc3cccc(N)c3)c(=O)c21 (stereo not shown) [ML-265, 6-(3-aminobenzyl)-4-methyl-2-(methylsulfinyl)-4,6-dihydro-5H-thieno[2′,3′:4,5]pyrrolo[2,3-d]pyridazin-5-one]
- induction of cell death (colorectal cancer cells; 100 μM, 24 h): did not induce cytotoxicity; also recorded: not able to induce cell death
- competition with binding of HMGB1 to PKM2 (PKM2): did not compete
- competition with binding of HMGB1 to PKM2 (PKM2; listed as ML265): does not compete

Compound: HPLC-purified HMGB1: HPLC-purified HMGB1 from the supernatant of Nkp30 stimulated blood donor NK cells
- cytotoxicity (colorectal cancer cells; 80 nM, 24 h, diluted in IgG1 control supernatant): substantial cytotoxicity

Compound: [N-]=[N+]=CC(=O)CC[C@H](N)C(=O)O [L-DON, 6-diazo-5-oxo-L-norleucine]
- cytotoxicity of glutaminolysis inhibition together with HMGB1 (colorectal cancer cells; L-DON 1 μM with HMGB1, glucose deprived and glucose supplemented medium): synergistic cytotoxicity

Compound: CC(C)[C@H](NC(=O)[C@H](C)NC(=O)CNC(=O)CN)C(=O)N[C@@H](CC(=O)O)C(=O)N[C@@H](CC(=O)O)C(=O)N[C@@H](CC(=O)O)C(=O)N[C@@H](Cc1ccc(OP(=O)(O)O)cc1)C(=O)N[C@@H](C)C(=O)N[C@@H](CCC(N)=O)C(=O)N[C@@H](Cc1ccccc1)C(=O)N[C@@H](C)C(=O)N[C@@H](CC(N)=O)C(=O)NCC(=O)NCC(=O)O [P-M2tide, GGAVDDDpYAQFANGG] (HELM PEPTIDE1{G.G.A.V.D.D.D.[O=C([C@H](Cc1ccc(OP(=O)(O)O)cc1)N[*:1])[*:2]].A.Q.F.A.N.G.G}$$$$V2.0)
- toxicity (colorectal cancer cells; 10 μM P-M2tide): non-toxic
- toxicity (colorectal cancer cells; 100 μM P-M2tide): cytotoxic
- Viable cells [PM2-tide] (CLL cells; patient P0010, sample 13PB0501, PM2-tide 100 μM, 250 µM): 100%
- Viable cells [PM2-tide] (CLL cells; patient P0010, sample 14PB0132, PM2-tide 100 μM, 250 µM): 75%
- Viable cells [PM2-tide] (CLL cells; patient P0074, sample 14BP0079, * responding to 100 μM PM2-tide): 46%*
- Viable cells [PM2-tide] (CLL cells; patient P0369, sample 13PB0555, PM2-tide 100 μM, 250 µM): 100%
- Viable cells [PM2-tide] (CLL cells; patient P0460, sample 14PB0471, * responding to 100 μM PM2-tide): 56%*
- Viable cells [PM2-tide] (CLL cells; patient P0641, sample 13PB0500, PM2-tide 100 μM, 250 µM): 100%
- Viable cells [PM2-tide] (CLL cells; patient P0641, sample 13PB0649, PM2-tide 100 μM, 250 µM): 93%
- Viable cells [PM2-tide] (CLL cells; patient P0645, sample 13PB0473, PM2-tide 100 μM, 250 µM): 91%
- Viable cells [PM2-tide] (CLL cells; patient P0701, sample 14PB0451, PM2-tide 100 μM, 250 µM): 100%
